Measured values published in US10611740B2, “Aryl dihydro-2H-benzo[b][1,4]oxazine sulfonamide and related compounds for use as agonists of RORγ and the treatment of disease” (Lycera Corporation, priority 2015, dated 2020).

Key:
Gal4-RORγ-LBD = target: T1, Gal4-RORγ-LBD (Homo sapiens, UniProt P51449); assay: Gal4-RORγ Luciferase Reporter Assay in HEK-293T Cells; type: cell-based; conditions: HEK-293 cells, 2 μM ursolic acid
T1 construct: expressed in transfected cells; host or cells: HEK-293 cells (pcDNA3.1neo plasmid)
T1 sequence (P51449 269-508 limits assumed): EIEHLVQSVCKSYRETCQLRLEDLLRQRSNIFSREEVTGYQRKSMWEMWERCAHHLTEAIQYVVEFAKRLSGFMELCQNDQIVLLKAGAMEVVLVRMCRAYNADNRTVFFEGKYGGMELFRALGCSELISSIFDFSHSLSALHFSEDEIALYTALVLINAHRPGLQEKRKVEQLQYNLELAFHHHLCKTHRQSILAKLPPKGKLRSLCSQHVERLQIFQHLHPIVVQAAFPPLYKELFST
Outline: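 Luminescence read-out (One-Glo, 10 min RT) after overnight compound exposure at 37 °C in HEK-293 cells carrying Gal4-RORγ-LBD plus a Gal4-luciferase reporter, in the presence of 2 μM ursolic acid. Max Response is the upper plateau from a 4-parameter logistic fit, normalized to untreated signal = 100.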

RORγ-LBD = target: T2, RORγ-LBD (Homo sapiens, UniProt P51449); assay: RORγ-Ligand Binding Domain (LBD) TR-FRET Assay; type: biochemical;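 on TR-FRET Assay Max Response: 665/615 nm ratio relative to signal without ursolic acid or compound set at 100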
T2 construct: made in house; host or cells: SF9 cells (baculovirus)
T2 sequence (P51449 269-508 limits assumed): T1 sequence (P51449 269-508 limits assumed)
Outline: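 TR-FRET read-out using a biotin-tagged SRC1 coactivator LXXLL peptide (200 nM final), with the antagonist ursolic acid present at 2 μM final. Receptor is His-tagged LBD expressed in SF9 cells, ~3 nM final in pH 7.0 Tris/KCl/EDTA/DTT/BSA buffer; compounds in 1% DMSO final.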

For O=C(NC[C@H]1CN(S(=O)(=O)c2cccc(C(F)(F)F)c2)c2cc(-c3cccc(F)c3Cl)ccc2O1)C(=O)C1CC1 [Compound 30CA, (S)-N-((6-(2-chloro-3-fluoro-phenyl)-4-((3-(trifluoromethyl)-phenyl)sulfonyl)-3,4-dihydro-2H-benzo[b][1,4]oxazin-2-yl)methyl)-2-cyclopropyl-2-oxoacetamide], the EC50 (Gal4-RORγ-LBD) was less than 0.5 µM, the “Gal4-RORγ Assay Max Response” value (Gal4-RORγ-LBD) was “* (The symbol “*” indicates a value in the range of 25 to 90)” and the EC50 (RORγ-LBD) was less than 0.5 µM. The “TR-FRET Assay Max Response” value (RORγ-LBD) was “*** (The symbol “***” indicates a value in the range of greater than 150 to 200)”.
In the case of O=C(NC[C@H]1CN(S(=O)(=O)c2cccc(C(F)(F)F)c2)c2cc(-c3cccc(F)c3Cl)ccc2O1)C1(CO)CC1 [Compound 30CB, (S)-N-((6-(2-chloro-3-fluoro-phenyl)-4-((3-(trifluoromethyl)-phenyl)sulfonyl)-3,4-dihydro-2H-benzo[b][1,4]oxazin-2-yl)methyl)-1-(hydroxymethyl)-cyclopropane-1-carboxamide], the EC50 (Gal4-RORγ-LBD) is reported as less than 0.5 µM, the “Gal4-RORγ Assay Max Response” value (Gal4-RORγ-LBD) is reported as “* (The symbol “*” indicates a value in the range of 25 to 90)” and the EC50 (RORγ-LBD) is reported as less than 0.5 µM. For the same molecule, the “TR-FRET Assay Max Response” value (RORγ-LBD) was “*** (The symbol “***” indicates a value in the range of greater than 150 to 200)”.
With COc1cc(S(=O)(=O)N2C[C@H](CNC(=O)[C@@](C)(O)C(F)(F)F)Oc3ccc(-c4cccc(C(F)(F)F)n4)cc32)ccc1F [Compound 30CC, (R)-3,3,3-trifluoro-N-(((S)-4-((4-fluoro-3-methoxyphenyl)-sulfonyl)-6-(6-(trifluoromethyl)-pyridin-2-yl)-3,4-dihydro-2H-benzo[b][1,4]oxazin-2-yl)methyl)-2-hydroxy-2-methylpropanamide] the EC50 (Gal4-RORγ-LBD) was less than 0.5 µM, the “Gal4-RORγ Assay Max Response” value (Gal4-RORγ-LBD) was “** (The symbol “**” indicates a value in the range of greater than 90 to 150)” and the EC50 (RORγ-LBD) was less than 0.5 µM. For the same molecule, the “TR-FRET Assay Max Response” value (RORγ-LBD) was “*** (The symbol “***” indicates a value in the range of greater than 150 to 200)”.
In the case of Cn1cc(C(=O)NC[C@H]2CN(S(=O)(=O)c3cccc(C(F)(F)F)c3)c3cc(-c4cccc(F)c4Cl)ccc3O2)cn1 [Compound 30CD, (S)-N-((6-(2-chloro-3-fluoro-phenyl)-4-((3-(trifluoromethyl)-phenyl)sulfonyl)-3,4-dihydro-2H-benzo[b][1,4]oxazin-2-yl)methyl)-1-methyl-1H-pyrazole-4-carboxamide], the EC50 (Gal4-RORγ-LBD) is reported as less than 0.5 µM, the “Gal4-RORγ Assay Max Response” value (Gal4-RORγ-LBD) is reported as “** (The symbol “**” indicates a value in the range of greater than 90 to 150)” and the EC50 (RORγ-LBD) is reported as less than 0.5 µM. The “TR-FRET Assay Max Response” value (RORγ-LBD) was “*** (The symbol “***” indicates a value in the range of greater than 150 to 200)”.
In the case of CC(F)(F)C(=O)NC[C@H]1CN(S(=O)(=O)c2cccc(C(F)(F)F)c2)c2cc(-c3cccc(F)c3Cl)ccc2O1 [Compound 30CE, (S)-N-((6-(2-chloro-3-fluoro-phenyl)-4-((3-(trifluoromethyl)-phenyl)sulfonyl)-3,4-dihydro-2H-benzo[b][1,4]oxazin-2-yl)methyl)-2,2-difluoro-propanamide], the EC50 (Gal4-RORγ-LBD) is reported as less than 0.5 µM, the “Gal4-RORγ Assay Max Response” value (Gal4-RORγ-LBD) is reported as “* (The symbol “*” indicates a value in the range of 25 to 90)” and the EC50 (RORγ-LBD) is reported as less than 0.5 µM. For the same molecule, the “TR-FRET Assay Max Response” value (RORγ-LBD) was “*** (The symbol “***” indicates a value in the range of greater than 150 to 200)”.
O=C(NC[C@H]1CN(S(=O)(=O)c2cccc(C(F)(F)F)c2)c2cc(-c3cccc(F)c3Cl)ccc2O1)C1CC1 [Compound 30CF, (S)-N-((6-(2-chloro-3-fluoro-phenyl)-4-((3-(trifluoromethyl)-phenyl)sulfonyl)-3,4-dihydro-2H-benzo[b][1,4]oxazin-2-yl)methyl)cyclopropanecarbox-amide] was tested, and the EC50 (Gal4-RORγ-LBD) was less than 0.5 µM, the “Gal4-RORγ Assay Max Response” value (Gal4-RORγ-LBD) was “** (The symbol “**” indicates a value in the range of greater than 90 to 150)” and the EC50 (RORγ-LBD) was less than 0.5 µM. The “TR-FRET Assay Max Response” value (RORγ-LBD) was “**** (The symbol “****” indicates a value greater than 200)”.
With CC(C)(O)CC(=O)NC[C@H]1CN(S(=O)(=O)c2cccc(C(F)(F)F)c2)c2cc(-c3cccc(F)c3Cl)ccc2O1 [Compound 30CG, (S)-N-((6-(2-chloro-3-fluoro-phenyl)-4-((3-(trifluoromethyl)-phenyl)sulfonyl)-3,4-dihydro-2H-benzo[b][1,4]oxazin-2-yl)methyl)-3-hydroxy-3-methylbutanamide] the EC50 (Gal4-RORγ-LBD) was 0.5 to 5 µM, the “Gal4-RORγ Assay Max Response” value (Gal4-RORγ-LBD) was “* (The symbol “*” indicates a value in the range of 25 to 90)” and the EC50 (RORγ-LBD) was less than 0.5 µM. For the same molecule, the “TR-FRET Assay Max Response” value (RORγ-LBD) was “*** (The symbol “***” indicates a value in the range of greater than 150 to 200)”.
In the case of COCCC(=O)NC[C@H]1CN(S(=O)(=O)c2cccc(C(F)(F)F)c2)c2cc(-c3cccc(F)c3Cl)ccc2O1 [Compound 30CH, (S)-N-((6-(2-chloro-3-fluoro-phenyl)-4-((3-(trifluoromethyl)-phenyl)sulfonyl)-3,4-dihydro-2H-benzo[b][1,4]oxazin-2-yl)methyl)-3-methoxy-propanamide], the EC50 (Gal4-RORγ-LBD) is reported as 0.5 to 5 µM, the “Gal4-RORγ Assay Max Response” value (Gal4-RORγ-LBD) is reported as “* (The symbol “*” indicates a value in the range of 25 to 90)” and the EC50 (RORγ-LBD) is reported as less than 0.5 µM. The “TR-FRET Assay Max Response” value (RORγ-LBD) was “*** (The symbol “***” indicates a value in the range of greater than 150 to 200)”.
CO[C@@H](C)C(=O)NC[C@H]1CN(S(=O)(=O)c2cccc(C(F)(F)F)c2)c2cc(-c3cccc(F)c3Cl)ccc2O1 [Compound 30CI, (S)-N-(((S)-6-(2-chloro-3-fluorophenyl)-4-((3-(trifluoro-methyl)phenyl)sulfonyl)-3,4-dihydro-2H-benzo[b][1,4]-oxazin-2-yl)methyl)-2-methoxypropanamide] was tested, and the EC50 (Gal4-RORγ-LBD) was 0.5 to 5 µM, the “Gal4-RORγ Assay Max Response” value (Gal4-RORγ-LBD) was “* (The symbol “*” indicates a value in the range of 25 to 90)” and the EC50 (RORγ-LBD) was less than 0.5 µM. For the same molecule, the “TR-FRET Assay Max Response” value (RORγ-LBD) was “*** (The symbol “***” indicates a value in the range of greater than 150 to 200)”.
With CC(=O)N[C@H](C)C(=O)NC[C@H]1CN(S(=O)(=O)c2cccc(C(F)(F)F)c2)c2cc(-c3cccc(F)c3Cl)ccc2O1 [Compound 30CJ, (R)-2-acetamido-N-(((S)-6-(2-chloro-3-fluorophenyl)-4-((3-(trifluoromethyl)phenyl)-sulfonyl)-3,4-dihydro-2H-benzo[b][1,4]oxazin-2-yl)methyl)propanamide] the EC50 (Gal4-RORγ-LBD) was 0.5 to 5 µM, the “Gal4-RORγ Assay Max Response” value (Gal4-RORγ-LBD) was “* (The symbol “*” indicates a value in the range of 25 to 90)” and the EC50 (RORγ-LBD) was less than 0.5 µM. The “TR-FRET Assay Max Response” value (RORγ-LBD) was “** (The symbol “**” indicates a value in the range of greater than 90 to 150)”.
With CC(F)C(=O)NC[C@H]1CN(S(=O)(=O)c2cccc(C(F)(F)F)c2)c2cc(-c3cccc(F)c3Cl)ccc2O1 (stereo partly drawn) [Compound 30CK, N-(((S)-6-(2-chloro-3-fluoro-phenyl)-4-((3-(trifluoromethyl)-phenyl)sulfonyl)-3,4-dihydro-2H-benzo[b][1,4]oxazin-2-yl)methyl)-2-fluoropropanamide] the EC50 (Gal4-RORγ-LBD) was 0.5 to 5 µM, the “Gal4-RORγ Assay Max Response” value (Gal4-RORγ-LBD) was “* (The symbol “*” indicates a value in the range of 25 to 90)” and the EC50 (RORγ-LBD) was less than 0.5 µM. The “TR-FRET Assay Max Response” value (RORγ-LBD) was “** (The symbol “**” indicates a value in the range of greater than 90 to 150)”.
CC(C)(C(=O)NC[C@H]1CN(S(=O)(=O)c2cccc(C(F)(F)F)c2)c2cc(-c3cc(F)cc(F)c3Cl)ccc2O1)C(F)(F)F [Compound 30CL, (S)-N-((6-(2-chloro-3,5-difluoro-phenyl)-4-((3-(trifluoromethyl)-phenyl)sulfonyl)-3,4-dihydro-2H-benzo[b][1,4]oxazin-2-yl)methyl)-3,3,3-trifluoro-2,2-dimethylpropanamide] was tested, and the EC50 (Gal4-RORγ-LBD) was 0.5 to 5 µM, the “Gal4-RORγ Assay Max Response” value (Gal4-RORγ-LBD) was “* (The symbol “*” indicates a value in the range of 25 to 90)” and the EC50 (RORγ-LBD) was 0.5 to 5 µM. For the same molecule, the “TR-FRET Assay Max Response” value (RORγ-LBD) was “** (The symbol “**” indicates a value in the range of greater than 90 to 150)”.
For CC(=O)NC(C)(C)C[C@H]1CN(S(=O)(=O)c2cccc(C(F)(F)F)c2)c2cc(-c3cc(F)ccc3F)ccc2O1 [Compound 30CV, (S)-N-(1-(6-(2,5-difluoro-phenyl)-4-((3-(trifluoromethyl)-phenyl)sulfonyl)-3,4-dihydro-2H-benzo[b][1,4]oxazin-2-yl)-2-methylpropan-2-yl)acetamide], the EC50 (Gal4-RORγ-LBD) was less than 0.5 µM, the “Gal4-RORγ Assay Max Response” value (Gal4-RORγ-LBD) was “* (The symbol “*” indicates a value in the range of 25 to 90)” and the EC50 (RORγ-LBD) was less than 0.5 µM. The “TR-FRET Assay Max Response” value (RORγ-LBD) was “*** (The symbol “***” indicates a value in the range of greater than 150 to 200)”.
In the case of CC(C)(C[C@H]1CN(S(=O)(=O)c2cccc(C(F)(F)F)c2)c2cc(-c3cc(F)ccc3F)ccc2O1)NC(=O)C(C)(C)O [Compound 30CX, (S)-N-(1-(6-(2,5-difluoro-phenyl)-4-((3-(trifluoromethyl)-phenyl)sulfonyl)-3,4-dihydro-2H-benzo[b][1,4]oxazin-2-yl)-2-methylpropan-2-yl)-2-hydroxy-2-methylpropanamide], the EC50 (Gal4-RORγ-LBD) is reported as less than 0.5 µM, the “Gal4-RORγ Assay Max Response” value (Gal4-RORγ-LBD) is reported as “* (The symbol “*” indicates a value in the range of 25 to 90)” and the EC50 (RORγ-LBD) is reported as less than 0.5 µM. The “TR-FRET Assay Max Response” value (RORγ-LBD) was “** (The symbol “**” indicates a value in the range of greater than 90 to 150)”.
